Measurements: patent US20100081690A1, “OXAZOLE DERIVATIVES AS POSITIVE ALLOSTERIC MODULATORS OF METABOTROPIC GLUTAMATE RECEPTORS” (ADDEX PHARMA SA, priority 2006, published 2010)

Biological target: T1, mGluR5 (Rattus norvegicus, UniProt P31424)
T1 construct: positive allosteric modulators of mGluR5 receptors in native preparations; endogenous in cells; host or cells: primary cortical astrocytes from Sprague-Dawley rat embryos (E16-19)
Assay: mGluR5 assay on rat cultured cortical astrocytes (Ca2+ mobilization, FLIPR)
Format: cell-based
Conditions: in the presence of 300 nM glutamate
From the text: Under exposure to growth factors (basic fibroblast growth factor, epidermal growth factor), rat cultured astrocytes express group I-Gq coupled mGluR transcripts, namely mGluR5, but none of the splice variants of mGluR1, and as a consequence, a functional expression of mGluR5 receptors (Miller et al. (1995) J. Neurosci. 15:6103-9): The stimulation of mGluR5 receptors with selective agonist CHPG and the full blockade of the glutamate-induced phosphoinositide (PI) hydrolysis and subsequent intracellular calcium mobilization with specific antagonist as MPEP confirm the unique expression of mGluR5 receptors in this preparation. […]
After one day of incubation, cells were washed with assay buffer containing: 142 mM NaCl, 6 mM KCl, 1 mM Mg2SO4, 1 mM CaCl2, 20 mM HEPES, 1 g/L glucose, 0.125 mM sulfinpyrazone, pH 7.4. […] The plates were then transferred to a Fluorometric Imaging Plate Reader (FLIPR, Molecular Devices, Sunnyvale, Calif.) for the assessment of intracellular calcium flux. After monitoring the baseline fluorescence for 10 s, a solution containing […] of representative compound of the present invention diluted in Assay Buffer (15 μl of 4× dilutions) was added to the cell plate in the absence or in the presence of 300 nM of glutamate. […] In each experiment, fluorescence was then monitored as a function of time for 3 minutes and the data analyzed using Microsoft Excel and GraphPad Prism. […]

T1 sequence (P31424 21-1203): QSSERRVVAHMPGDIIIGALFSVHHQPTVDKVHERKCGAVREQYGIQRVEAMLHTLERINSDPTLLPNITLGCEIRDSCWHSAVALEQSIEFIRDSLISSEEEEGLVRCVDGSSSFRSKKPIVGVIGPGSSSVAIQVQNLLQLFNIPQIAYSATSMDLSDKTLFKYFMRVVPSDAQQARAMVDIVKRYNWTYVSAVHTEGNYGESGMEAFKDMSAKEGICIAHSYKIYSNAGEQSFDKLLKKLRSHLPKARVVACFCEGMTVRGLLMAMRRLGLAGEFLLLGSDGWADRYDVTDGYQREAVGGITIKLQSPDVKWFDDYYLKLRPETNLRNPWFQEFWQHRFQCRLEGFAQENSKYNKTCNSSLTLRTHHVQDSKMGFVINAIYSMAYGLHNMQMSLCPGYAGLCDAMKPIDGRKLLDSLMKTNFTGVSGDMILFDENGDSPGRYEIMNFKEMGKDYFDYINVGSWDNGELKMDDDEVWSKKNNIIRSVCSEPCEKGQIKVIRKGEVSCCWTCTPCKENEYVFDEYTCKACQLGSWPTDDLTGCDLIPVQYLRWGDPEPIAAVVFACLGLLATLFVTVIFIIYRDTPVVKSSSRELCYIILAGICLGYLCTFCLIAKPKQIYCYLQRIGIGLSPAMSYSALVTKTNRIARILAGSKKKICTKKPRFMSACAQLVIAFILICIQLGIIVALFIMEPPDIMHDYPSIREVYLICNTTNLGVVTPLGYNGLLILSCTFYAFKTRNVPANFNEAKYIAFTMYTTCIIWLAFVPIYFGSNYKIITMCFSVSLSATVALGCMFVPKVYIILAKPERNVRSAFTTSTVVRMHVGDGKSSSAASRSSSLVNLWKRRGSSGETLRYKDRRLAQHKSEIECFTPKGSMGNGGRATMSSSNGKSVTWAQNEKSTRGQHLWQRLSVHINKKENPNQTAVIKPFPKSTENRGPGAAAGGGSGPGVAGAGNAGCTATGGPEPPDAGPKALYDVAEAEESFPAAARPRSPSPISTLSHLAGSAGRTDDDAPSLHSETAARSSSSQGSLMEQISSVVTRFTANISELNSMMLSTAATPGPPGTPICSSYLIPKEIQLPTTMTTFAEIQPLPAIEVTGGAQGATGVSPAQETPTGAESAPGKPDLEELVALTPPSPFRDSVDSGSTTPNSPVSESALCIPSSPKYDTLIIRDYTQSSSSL

**Q.** For `O=C(c1ccc(F)cc1)N1CCC[C@H](c2nc(-c3cc(F)c[nH]3)co2)C1` [Example 1, (4-Fluoro-phenyl)-{(S)-3-[4-(4-fluoro-1H-pyrrol-2-yl)-oxazol-2-yl]-piperidin-1-yl}-methanone], which EC50 is on record?
**A.** Its EC50 is under 1 µM.
